Test [1] relates to interferon-inducible protein 10 (IP-10). The test is described as follows: IP-10 in RSV-infected peripheral blood mononuclear cells (Example 39). The class given is cell-based, human. The note with it: for IP-10 level compared with uninfected controls / IP-10 in virus-infected variables: FIGS. 3-6; for IP-10 in virus-infected variables: both donors, 24 hour pretreatment, 0.1-0.5 mg/mL (LNnT 0.1-1 mg/mL); for reduction of inflammation caused by RSV: pretreatment for 24 hours, measured by decrease in IP-10. As to the method:
(§1) Specifically, either 3′SL or 6′SL is added, at concentrations of 0.1 mg/mL, 0.2 mg/mL, or 0.5 mg/mL to fresh peripheral blood mononuclear cells and incubated at 37° C. in 5% CO2 to pretreat the cells for approximately 24 hours. LNnT is added, at concentrations of 0.1 mg/mL, 0.2 mg/mL, or 1 mg/mL to fresh peripheral blood mononuclear cells and incubated at 37° C. in 5% CO2 to pretreat the cells for approximately 24 hours. Lactose is included as a carbohydrate control. Matched endotoxin unit concentration controls are included to allow differentiation of ingredient effects from inherent low levels of endotoxin. Some variables are then incubated with RSV at a multiplicity of infection (MOI) of 0.1 for approximately 1 hour at 37° C. in 5% in CO2. Uninfected control variables are incubated with medium for approximately 1 hour at 37° C. in 5% CO2. After approximately one hour, fresh medium alone, or fresh medium containing the appropriate concentration of 3′SL, 6′SL, LNnT, lactose, or endotoxin is added to the appropriate tubes and the cells are incubated for 48 hours at 37° C. in 5% CO2. Supernatants are collected at 24 and 48 hours post-infection.
(§2) Cytokines are measured in supernatants for each variable at 24 and 48 hours to assess the effects of HMOs on the early immune response to RSV. Cytokines are measured using custom Bio-Plex Human cytokine kits from Bio-Rad. Results for interferon-inducible protein 10 (IP-10, also known as CXCL 10) are shown in FIGS. 3 and 4 for 3′SL and 6′SL, and in FIGS. 5 and 6 for LNnT. IP-10 is a CXC chemokine that attracts, binds to and activates the CXCR3 receptor on natural killer cells and memory T cells. IP-10 is expressed by monocytes and a number of other cells, and is induced by interferon. A positive correlation exists between RSV clinical disease severity in children (as measured by: length of hospital stay, fever, and number of days supplemental O2 is required) and serum IP-10. Therefore, a decrease in IP-10 signals a decrease in severity of RSV disease experienced.

The subject of test [2] is interleukin 10 (IL-10). The test is described as follows: IL-10 in peripheral blood mononuclear cells with or without RSV (Example 39). The class given is cell-based, human. To be noted: in the presence or absence of RSV; FIGS. 7-10. As for the experimental part:
as §1, with “After approximately one hour, fresh medium alone, or fresh medium containing the appropriate concentration of 3′SL, 6′SL, LNnT, lactose, or endotoxin is added to the appropriate tubes and the cells are incubated for 48 hours at 37° C. in 5% CO2. Supernatants are collected at 24 and 48 hours post-infection.” left out
Cytokines are measured in supernatants for each variable at 24 and 48 hours to assess the effects of HMOs on the early immune response to RSV. Cytokines are measured using custom Bio-Plex Human cytokine kits from Bio-Rad. […] A positive correlation exists between RSV clinical disease severity in children (as measured by: length of hospital stay, fever, and number of days supplemental O2 is required) and serum IP-10. […]

The test system of test [3] is monocyte-derived cytokines. The test is described as follows: Monocyte-derived cytokines in peripheral blood mononuclear cells (Example 39). It counts as cell-based, human. As to the method: as §1, §2
For test [4], the system named is respiratory syncytial virus (RSV). Kind of test: RSV replication (RSV NS1 copy numbers) in 16HBE lung epithelial cells (Example 42). The note with it: RSV MOI 1, FIGS. 13-15. It counts as cell-based. As for the experimental part:
Specifically, on Day −1, 16HBE cell monolayers are seeded in sufficient numbers to reach 95-100% confluence in 24 well places by Day 0. On day 0, either 2′FL (in concentrations of 1 μg/mL, 5 μg/mL, 10 μg/mL, 50 μg/mL, 100 μg/mL, 500 μg/mL, and 1000 μg/mL), LNnT (in concentrations of 10 μg/mL, 100 μg/mL, or 1000 μg/mL), or 3′SL (in concentrations of 5 μg/mL, 10 μg/mL, 50 μg/mL, 100 μg/mL, 500 μg/mL, and 1000 μg/mL) is added and incubated for approximately 24 hours at 37° C. in 5% CO2. On day 1, the cell supernatants are removed and the monolayers are incubated with medium alone or medium plus Respiratory Syncytial Virus (RSV) for approximately 1 hour at 37° C. in 5% CO2 at a multiplicity of infection (MOI) of 1. After approximately 1 hour, fresh medium alone or containing the appropriate concentrations of 2′FL 3′SL, or LNnT is added to the appropriate wells, and the cells are incubated for 48 hours at 37° C. in 5% CO2. On day 3, supernatants and cell lysates are collected separately, aliquotted and stored frozen at −70° C. for later analysis. Cell lysates are analyzed by TaqMan qRTPCR to assess viral replication through measurement of RSV NS1 copy numbers.

The subject of test [5] is H1N1 influenza A virus (IAV). The test is described as follows: H1N1 influenza A virus replication (IAV M gene copy numbers) in 16HBE cells (Example 43). The class given is cell-based. The note with it: 16HBE lung epithelial cells; MOI 0.01; FIG. 16.
In test [6] the test system is interleukin 10 (IL-10). Kind of test: IL-10 in PBMCs in the presence or absence of RSV (Example 45). The class given is cell-based, human. To be noted: in the presence or absence of RSV (MOI 0.1); for IL-10 response, Donor A and Donor E: 0.1-2.0 mg/mL, FIGS. 20A, 20B; for IL-10 response, Donor B and Donor E: FIGS. 19A, 19B. As for the experimental part:
Specifically, 3′SL and 6′SL are added individually at concentrations of 0.1 mg/mL, 0.2 mg/mL, or 0.5 mg/mL or in combination (Combo 1=1 part 3′SL to 1 part 6′SL; and Combo 2=1 part 3′SL to 2 parts 6′SL), at total concentrations of 0.2 mg/mL, 0.4 mg/mL, or 1.0 mg/mL to fresh PBMCs and incubated at 37° C. in 5% CO2 to pretreat the cells for approximately 24 hours. In a separate experiment, LNnT and 2′FL are added individually at concentrations of 0.1 mg/mL, 0.2 mg/mL, 1.0 mg/mL or 2.0 mg/mL to fresh PBMCs and incubated at 37° C. in 5% CO2 to pretreat the cells for approximately 24 hours. Lactose is included as a carbohydrate control. Matched endotoxin unit concentration controls are included to allow differentiation of ingredient effects from inherent low levels of endotoxin. After approximately 24 hours, some variables are then incubated with RSV at a multiplicity of infection (MOI) of 0.1 for approximately 1 hour at 37° C. in 5% in CO2. Uninfected control variables are incubated with medium for approximately 1 hour at 37° C. in 5% CO2. After approximately 1 hour, fresh medium alone or containing the appropriate concentrations of LNnT alone, 2′FL alone, 3′SL or 6′SL individually or in combination, lactose alone, or endotoxin alone is added to the appropriate variables, and the PBMCs were incubated for 48 hours at 37° C. in 5% CO2. Supernatants are collected at 24 and 48 hours post-infection. Cytokines are measured in supernatants for each variable at 24 and 48 hours to assess the effects of HMOs on the early immune response to RSV. Cytokines are measured using custom Bio-Plex Human cytokine kits from Bio-Rad.

Test [7] deals with H1N1 influenza virus. It counts as cell-based. The note with it: 10 mg/mL; MDCK cells; FIG. 1.
Test [8] concerns H1N1 influenza A virus (IAV). Kind of test: H1N1 influenza A virus replication (IAV M gene copy numbers) in Calu3 cells (Example 43). The class given is cell-based. To be noted: Calu3 lung epithelial cells; MOI 0.01; FIG. 17.
Test [9] concerns interferon-inducible protein 10 (IP-10). Kind of test: IP-10 in RSV-infected PBMCs, 6′SL (Example 44). It counts as cell-based, human. The note with it: 0.1 mg/mL to 1 mg/mL; RSV MOI 1.0; 4 donors; 48 hours; FIG. 18. As to the method: Specifically, 6′SL was added individually at concentrations of 0.1 mg/mL, 0.2 mg/mL, 0.5 mg/mL or 1.0 mg/mL to fresh peripheral blood mononuclear cells (PCMBs) and incubated at 37° C. in 5% CO2 to pretreat the cells for approximately 24 hours. After approximately 24 hours, some variables are then incubated with RSV at a multiplicity of infection (MOI) of 1.0 for approximately 1 hour at 37° C. in 5% in CO2. Uninfected control variables are incubated with medium for approximately 1 hour at 37° C. in 5% CO2. After approximately 1 hour, fresh medium alone or containing the appropriate concentrations of 6′SL is added to the appropriate variables, and the PBMCs are incubated for 48 hours at 37° C. in 5% CO2. Supernatants are collected at 48 hours post-infection. Cytokines are measured in supernatants for each variable at 48 hours to assess the effects of HMOs on the early immune response to RSV.
Interferon-inducible Protein 10 (IP-10, also known as CXCL10) is a CXC chemokine that attracts, binds to and activates the CXCR3 receptor on Natural Killer Cells and Memory T cells. IP-10 is expressed by monocytes and a number of other cells, and is induced by interferon. A positive correlation exists between RSV clinical disease severity in children (as measured by: length of hospital stay, fever, and number of days supplemental O2 was required) and serum IP-10. […]

Test [10] deals with H1N1 influenza virus. It counts as cell-based. The note with it: at a concentration of 1 mg/mL.
Where [11] appears, read: in the presence or absence of the virus.

SMILES strings stand for the structures. Some results are limits rather than exact numbers.

For the compound `CC(=O)N[C@H]1[C@H](O[C@H]2[C@@H](O)[C@@H](CO)O[C@@H](O[C@H]3[C@H](O)[C@@H](O)C(O)O[C@@H]3CO)[C@@H]2O)O[C@H](CO)[C@@H](O[C@@H]2O[C@H](CO)[C@H](O)[C@H](O)[C@H]2O)[C@@H]1O` (mixture of isomers) [LNnT, lacto-N-neotetraose], in test [1] (RSV MOI 0.1), the “IP-10 level compared with uninfected controls” value is given as “reduce IP-10 to levels found in uninfected controls” and the “IP-10 in virus-infected variables” value was “clearly downregulates IP-10”. Moreover, the “reduction of inflammation caused by RSV” value in test [1] is “effective in reducing inflammation caused by RSV”. In the test with interleukin 10 (IL-10) [2], the IL-10 concentration entry is on record as “increases IL-10 concentration in a dose-dependent manner”. Besides, the “production of monocyte-derived cytokines (IL-10, MIP-1β, Interferon-γ, IL-8, IL-1α, IL-1β, IL-1ra)” value in test [3] (setting [11]) was “immunomodulatory”. The “concentrations that decrease viral load or inhibit RSV replication (RSV NS1 copies)” value in test [4] was no less than 10 µg/mL. Also, the “concentrations that decrease viral load or inhibit IAV replication (IAV M gene copies)” value in [5] was no less than 1 µg/mL. Also, in the test with interleukin 10 (IL-10) [6], the “IL-10 response, Donor A and Donor E” value is reported as “clear dose-dependent increase in IL-10 response”.
Turning to `CC(=O)N[C@H]1[C@H]([C@H](O)[C@H](O)CO)O[C@@](OC[C@H]2O[C@@H](O[C@H]3[C@H](O)[C@@H](O)[C@H](O)O[C@@H]3CO)[C@H](O)[C@@H](O)[C@H]2O)(C(=O)O)C[C@@H]1O` [6′SL, 6′-sialyllactose], the “inhibition of virus infectivity” value in the test with H1N1 influenza virus [7] is listed as “approximately 60%”. Also, in test [1] (RSV MOI 0.1), the “IP-10 level compared with uninfected controls” value was “reduce IP-10 to levels found in uninfected controls” and the “IP-10 in virus-infected variables” value is “clearly downregulates IP-10”. The “reduction of inflammation caused by RSV” value in [1] is recorded as “effective in reducing inflammation caused by RSV”. In [3] (in the absence of the virus), the “production of monocyte-derived cytokines (IL-10, MIP-1β, Interferon-γ, IL-8, IL-1α, IL-1β, IL-1ra)” value is recorded as “immunomodulatory”. In [8], the “concentrations that decrease viral load or inhibit IAV replication (IAV M gene copies)” value was no less than 10 µg/mL. For the same compound, the “IP-10 in RSV infected PBMCs” value in [9] is listed as “dose-dependent downregulation of IP-10”. For the same compound, the “IL-10 response, Donor B and Donor E” value in the test on interleukin 10 (IL-10) [6] is on record as “clear dose-dependent increase in IL-10 response”.
`CC(=O)N[C@H]1[C@H]([C@H](O)[C@H](O)CO)O[C@@](O[C@H]2[C@@H](O)[C@@H](CO)O[C@@H](O[C@H]3[C@H](O)[C@@H](O)C(O)O[C@@H]3CO)[C@@H]2O)(C(=O)O)C[C@@H]1O` (stereo partly drawn) [3′SL, 3′-sialyllactose]: the “anti-viral activity against H1N1 influenza virus” value with H1N1 influenza virus [10] is reported as “inhibited”. Besides, the “RSV-induced IP-10, Donor B” value in test [1] (RSV MOI 0.1, Donor B) is given as “not effective”. Moreover, the “RSV-induced IP-10, Donor E” value in [1] (RSV MOI 0.1, Donor E) is recorded as “downregulates RSV-induced IP-10”. In addition, in [1], the “reduction of inflammation caused by RSV” value is recorded as “effective in reducing inflammation caused by RSV”. Further, the “production of monocyte-derived cytokines (MIP-1β, Interferon-γ, IL-8, IL-1ra)” value in test [3] (setting [11]) is given as “immunomodulatory”. Also, the “IL-10 response, Donor B and Donor E” value in the test with interleukin 10 (IL-10) [6] is “do not increase IL-10”.
On to `OC[C@H]1O[C@@H](O[C@H]2[C@H](O)[C@@H](O)C(O)O[C@@H]2CO)[C@H](O)[C@@H](O)[C@H]1O` (stereo partly drawn) [lactose, Lactose, reference compound], for which, in the test on interleukin 10 (IL-10) [6], the “IL-10 response, Donor A and Donor E” value is listed as “do not increase IL-10”; the “IL-10 response, Donor B and Donor E” value is “do not increase IL-10”.
